# Patent publication US20250011368A1, “DLL3 TARGETING PEPTIDES AND CONSTRUCTS THEREOF” (MARIANA ONCOLOGY INC., priority 2023, published 2025)
# Numbered stars: 1 amine (or outer) side, 2 acyl side, 3 side chain; on linkers, the order of the positions; unused ones are H or OH. Bridge positions count the residues as written; N and C are the ends. Square brackets hold non-standard residues; d marks the D form. Side chains are listed from the residue outwards. Peptide text beside a SMILES is read from it. * marks the point of attachment. PEG24 = NCCOCCOCCOCCOCCOCCOCCOCCOCCOCCOCCOCCOCCOCCOCCOCCOCCOCCOCCOCCOCCOCCOCCOCCOCCC(=O)O; Ala(piperidin-4-yl) = O=C([C@H](CC1CCN([*:3])CC1)N[*:1])[*:2]; DOTA = O=C(O)CN1CCN(CC(=O)O)CCN(CC(=O)*)CCN(CC(=O)O)CC1; Phe(4-CF3) = N[C@@H](Cc1ccc(C(F)(F)F)cc1)C(=O)O; Trp(5-F) = N[C@@H](Cc1c[nH]c2ccc(F)cc12)C(=O)O; Phe(2-CF3) = N[C@@H](Cc1ccccc1C(F)(F)F)C(=O)O; Trp(7-aza) = N[C@@H](Cc1c[nH]c2ncccc12)C(=O)O; Pro(trans-4-F) = O=C(O)[C@@H]1C[C@@H](F)CN1; PEG8 = NCCOCCOCCOCCOCCOCCOCCOCCOCCC(=O)O; γGlu = O=C(O)[C@H](CCC(=O)[*:2])N[*:1]; 2Nal = N[C@@H](Cc1ccc2ccccc2c1)C(=O)O; Nva(3-Et) = CCC(CC)[C@H](N)C(=O)O; Palmitoyl = CCCCCCCCCCCCCCCC(=O)*; 4Pal = N[C@@H](Cc1ccncc1)C(=O)O; β3hF = N[C@H](CC(=O)O)Cc1ccccc1; Chg = N[C@H](C(=O)O)C1CCCCC1; NMeNle = CCCC[C@H](NC)C(=O)O; Aze = O=C(O)[C@@H]1CCN1; Dab = NCC[C@H](N)C(=O)O; Hexanoyl = CCCCCC(=O)*
# Target: T1, human DLL3 (Homo sapiens, UniProt Q9NYJ7)
# T1 sequence (Q9NYJ7 27-618): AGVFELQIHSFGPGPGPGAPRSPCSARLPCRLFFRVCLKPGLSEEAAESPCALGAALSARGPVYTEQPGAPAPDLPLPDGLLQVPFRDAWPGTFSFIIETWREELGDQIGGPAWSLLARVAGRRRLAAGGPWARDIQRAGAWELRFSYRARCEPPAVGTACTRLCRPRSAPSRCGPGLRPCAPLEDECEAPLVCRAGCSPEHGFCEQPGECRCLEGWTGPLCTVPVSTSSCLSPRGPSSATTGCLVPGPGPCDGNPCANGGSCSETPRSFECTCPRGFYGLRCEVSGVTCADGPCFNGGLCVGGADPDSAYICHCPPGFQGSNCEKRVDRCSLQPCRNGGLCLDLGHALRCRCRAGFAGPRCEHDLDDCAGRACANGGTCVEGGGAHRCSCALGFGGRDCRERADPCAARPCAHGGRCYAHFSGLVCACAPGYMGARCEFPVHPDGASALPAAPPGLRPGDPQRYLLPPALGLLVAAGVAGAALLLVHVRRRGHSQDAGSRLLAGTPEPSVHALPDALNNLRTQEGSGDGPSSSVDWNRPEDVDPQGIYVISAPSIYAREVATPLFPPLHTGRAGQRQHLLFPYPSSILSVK
# Assay: Affinity determination by Surface Plasmon Resonance (SPR)
# Type: binding
# Settings: 25° C., biotinylated human DLL3 immobilized on streptavidin sensor chip, 1:1 binding model; read-out: SPR KD
# Summary of the method: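 Biotinylated human DLL3 was captured on a streptavidin chip with a reference surface. Compounds at several concentrations were injected at 100 μL/minute in phosphate buffer (137 mM NaCl, 2.7 mM KCl, 0.05% P20, 2% DMSO). Affinity and kinetics came from 1:1 model fits of the sensorgrams.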
row,SMILES,Kd
1,"CC[C@H](C)[C@H](NC(=O)[C@@H](NC(=O)[C@H](Cc1c[nH]c2ccccc12)NC(C)=O)[C@@H](C)O)C(=O)N[C@H]1CSSC[C@@H](C(=O)N[C@@H](Cc2c[nH]c3ccccc23)C(=O)N2CCC[C@H]2C(=O)N[C@H](CCCCNC(=O)CN2CCN(CC(=O)O)CCN(CC(=O)O)CCN(CC(=O)O)CC2)C(N)=O)NC(=O)[C@H](CC(=O)O)NC(=O)[C@H](CCC(=O)O)NC(=O)[C@H](Cc2c[nH]c3ccccc23)NC(=O)[C@H](CC(N)=O)NC(=O)[C@H](CCC(=O)O)NC1=O [compound 273, Ac-W-T-I-C(3)-Glu-N-W-Glu-D-C(3)-W-P-[D-Lys(DOTA)]-NH2] (Ac-WTICENWEDCWP[dK](DOTA)-NH2; disulfide 4-10)",1 to 10 nM
2,"CC(=O)N[C@@H](Cc1c[nH]c2ccccc12)C(=O)N[C@H](C(=O)N[C@H](C(=O)N[C@H]1CSSC[C@@H](C(=O)N[C@@H](Cc2c[nH]c3ccccc23)C(=O)N2CCC[C@H]2C(=O)N[C@H](CCCCNC(=O)CN2CCN(CC(=O)O)CCN(CC(=O)O)CCN(CC(=O)O)CC2)C(N)=O)NC(=O)[C@H](C)NC(=O)[C@H](Cc2cnc[nH]2)NC(=O)[C@H](Cc2ccc3ccccc3c2)NC(=O)[C@H](CC(N)=O)NC(=O)[C@H](CC2CCNCC2)NC1=O)C1CCCCC1)[C@@H](C)O [compound 284, Ac-W-T-(Chg)-C(3)-[3-(4-piperidinyl)-Ala]-N-(2Nal)-H-(Ala)-C(3)-W-P-[D-Lys(DOTA)]-NH2] (Ac-WT[Chg]C[Ala(piperidin-4-yl)]N[2Nal]HACWP[dK](DOTA)-NH2; disulfide 4-10)",< 1 nM
3,"CC[C@H](C)[C@H](NC(=O)[C@@H](NC(=O)[C@H](Cc1c[nH]c2ccccc12)NC(C)=O)[C@@H](C)O)C(=O)N[C@H]1CSSC[C@@H](C(=O)N[C@@H](Cc2c[nH]c3ccccc23)C(=O)N2CCC[C@H]2C(=O)N2CCC[C@@H]2C(=O)N2CCC[C@@H]2C(=O)N2CCC[C@@H]2C(=O)NCCOCCOCCOCCOCCOCCOCCOCCOCCC(=O)N[C@H](CCCCNC(=O)CN2CCN(CC(=O)O)CCN(CC(=O)O)CCN(CC(=O)O)CC2)C(N)=O)NC(=O)[C@H](CC(=O)O)NC(=O)[C@H](Cc2c[nH]cn2)NC(=O)[C@H](Cc2ccc3ccccc3c2)NC(=O)[C@H](CC(N)=O)NC(=O)[C@H](CC(N)=O)NC1=O [compound 357, Ac-W-T-I-C(3)-N-N-(2Nal)-H-D-C(3)-W-P-(D-Pro)3-PEG8-[D-Lys(DOTA)]-NH2] (Ac-WTICNN[2Nal]HDCWP[dP][dP][dP][PEG8][dK](DOTA)-NH2; disulfide 4-10)",< 1 nM
4,"CC(=O)N[C@@H](Cc1c[nH]c2ccccc12)C(=O)N[C@H](C(=O)N[C@H](CC(=O)N[C@H]1CSSC[C@@H](C(=O)N[C@@H](Cc2c[nH]c3ccccc23)C(=O)N2CCC[C@H]2C(=O)N[C@H](CCCCNC(=O)CN2CCN(CC(=O)O)CCN(CC(=O)O)CCN(CC(=O)O)CC2)C(N)=O)NC(=O)[C@H](CC(=O)O)NC(=O)[C@H](Cc2c[nH]cn2)NC(=O)[C@H](Cc2c[nH]c3ccccc23)NC(=O)[C@H](CC(N)=O)NC(=O)[C@H](CC(N)=O)NC1=O)Cc1ccccc1)[C@@H](C)O [compound 115, Ac-W-T-(2PhEt-A)-C(3)-N-N-W-H-D-C(3)-W-P-[D-Lys(DOTA)]-NH2] (Ac-WT[β3hF]CNNWHDCWP[dK](DOTA)-NH2; disulfide 4-10)",1 to 10 nM
5,"CC(=O)N[C@@H](Cc1c[nH]c2ccccc12)C(=O)N[C@H](C(=O)N[C@@H](Cc1ccccc1C(F)(F)F)C(=O)N[C@H]1CSSC[C@@H](C(=O)N[C@@H](Cc2c[nH]c3ccccc23)C(=O)N2CCC[C@H]2C(=O)N[C@H](CCCCNC(=O)CN2CCN(CC(=O)O)CCN(CC(=O)O)CCN(CC(=O)O)CC2)C(N)=O)NC(=O)[C@H](CC(=O)O)NC(=O)[C@H](Cc2c[nH]cn2)NC(=O)[C@H](Cc2c[nH]c3ccccc23)NC(=O)[C@H](CC(N)=O)NC(=O)[C@H](CC(N)=O)NC1=O)[C@@H](C)O [compound 114, Ac-W-T-(2CF3-F)-C(3)-N-N-W-H-D-C(3)-W-P-[D-Lys(DOTA)]-NH2] (Ac-WT[Phe(2-CF3)]CNNWHDCWP[dK](DOTA)-NH2; disulfide 4-10)",< 1 nM
6,"CCCCCC(=O)NCC[C@@H]1NC(=O)[C@@H](NC(=O)[C@@H](NC(=O)[C@@H](NC(=O)[C@H](Cc2c[nH]c3ccccc23)NC(C)=O)[C@@H](C)O)[C@@H](C)CC)CSSC[C@@H](C(=O)N[C@@H](Cc2c[nH]c3ccccc23)C(=O)N2CCC[C@H]2C(=O)N[C@H](CCCCNC(=O)CN2CCN(CC(=O)O)CCN(CC(=O)O)CCN(CC(=O)O)CC2)C(N)=O)NC(=O)[C@H](CC(=O)O)NC(=O)[C@H](Cc2cnc[nH]2)NC(=O)[C@H](Cc2c[nH]c3ccccc23)NC(=O)[C@H](CC(N)=O)NC1=O [compound 90, Ac-W-T-I-C(3)-(DAB-4-NHCOC5H11)-N-W-H-D-C(3)-W-P-[D-Lys(DOTA)]-NH2] (Ac-WTIC[Dab](Hexanoyl)NWHDCWP[dK](DOTA)-NH2; disulfide 4-10)",10 to 100 nM
7,"CC(=O)N[C@@H](Cc1c[nH]c2ccccc12)C(=O)N[C@H](C(=O)N[C@H](C(=O)N[C@H]1CSSC[C@@H](C(=O)N[C@@H](Cc2c[nH]c3ccccc23)C(=O)N2CCC[C@H]2C(=O)N[C@H](CCCCNC(=O)CN2CCN(CC(=O)O)CCN(CC(=O)O)CCN(CC(=O)O)CC2)C(N)=O)NC(=O)[C@H](CC(=O)O)NC(=O)[C@H](Cc2cnc[nH]2)NC(=O)[C@H](Cc2ccc3ccccc3c2)NC(=O)[C@H](CC(N)=O)NC(=O)[C@H](Cc2ccncc2)NC1=O)C1CCCCC1)[C@@H](C)O [compound 290, Ac-W-T-(Chg)-C(3)-(4Pya)-N-(2Nal)-H-D-C(3)-W-P-[D-Lys(DOTA)]-NH2] (Ac-WT[Chg]C[4Pal]N[2Nal]HDCWP[dK](DOTA)-NH2; disulfide 4-10)",< 1 nM
8,"CCC(CC)[C@H](NC(=O)[C@@H](NC(=O)[C@H](Cc1c[nH]c2ccc(F)cc12)NC(C)=O)[C@@H](C)O)C(=O)N[C@H]1CSSC[C@@H](C(=O)N[C@@H](Cc2c[nH]c3ncccc23)C(=O)N2C[C@H](F)C[C@H]2C(=O)N[C@@H](CCCCNC(=O)CN2CCN(CC(=O)O)CCN(CC(=O)O)CCN(CC(=O)O)CC2)C(N)=O)NC(=O)[C@H](CC(=O)O)NC(=O)[C@H](Cc2cnc[nH]2)NC(=O)[C@H](Cc2ccc3ccccc3c2)NC(=O)[C@H](CC(N)=O)NC(=O)[C@H](CC(N)=O)NC1=O [compound 242, Ac-(5Fluoro-W)-T-(Env)-C(3)-N-N-(2Nal)-H-D-C(3)-(7Aza-W)-(trans4Fluoro-P)-[D-Lys(DOTA)]-NH2] (Ac-[Trp(5-F)]T[Nva(3-Et)]CNN[2Nal]HDC[Trp(7-aza)][Pro(trans-4-F)]K(DOTA)-NH2; disulfide 4-10)",< 1 nM
9,"CC(=O)N[C@@H](Cc1c[nH]c2ccc(F)cc12)C(=O)N[C@H](C(=O)N[C@@H](Cc1ccccc1C(F)(F)F)C(=O)N[C@H]1CSSC[C@@H](C(=O)N[C@@H](Cc2c[nH]c3ncccc23)C(=O)N2C[C@H](F)C[C@H]2C(=O)N[C@@H](CCCCNC(=O)CN2CCN(CC(=O)O)CCN(CC(=O)O)CCN(CC(=O)O)CC2)C(N)=O)NC(=O)[C@H](CC(=O)O)NC(=O)[C@H](Cc2cnc[nH]2)NC(=O)[C@H](Cc2ccc3ccccc3c2)NC(=O)[C@H](CC(N)=O)NC(=O)[C@H](CC(N)=O)NC1=O)[C@@H](C)O [compound 246, Ac-(5Fluoro-W)-T-(2CF3-F)-C(3)-N-N-(2Nal)-H-D-C(3)-(7Aza-W)-(trans4Fluoro-P)-[D-Lys(DOTA)]-NH2] (Ac-[Trp(5-F)]T[Phe(2-CF3)]CNN[2Nal]HDC[Trp(7-aza)][Pro(trans-4-F)]K(DOTA)-NH2; disulfide 4-10)",< 1 nM
10,"CCCCCCCCCCCCCCCC(=O)N[C@@H](CCC(=O)NCCOCCOCCOCCOCCOCCOCCOCCOCCOCCOCCOCCOCCOCCOCCOCCOCCOCCOCCOCCOCCOCCOCCOCCOCCC(=O)NCCCC[C@@H]1NC(=O)[C@H](Cc2ccc3ccccc3c2)NC(=O)[C@H](CC(N)=O)NC(=O)[C@H](CC2CCNCC2)NC(=O)[C@@H](NC(=O)[C@H](CCCC)N(C)C(=O)[C@@H](NC(=O)[C@H](Cc2c[nH]c3ccccc23)NC(C)=O)[C@@H](C)O)CSSC[C@@H](C(=O)N[C@@H](Cc2c[nH]c3ccccc23)C(=O)N2CCC[C@H]2C(=O)N[C@H](CCCCNC(=O)CN2CCN(CC(=O)O)CCN(CC(=O)O)CCN(CC(=O)O)CC2)C(N)=O)NC(=O)[C@H](CC(=O)O)NC1=O)C(=O)O [compound 427, Ac-W-T-(NMe-Nle)-C(3)-[3-(4-piperidinyl)-Ala]-N-(2Nal)-Lys(PEG24-[gE(C16)]-OH)-D-C(3)-W-P-[D-Lys(DOTA)]-NH2] (Ac-WT[NMeNle]C[Ala(piperidin-4-yl)]N[2Nal]K([PEG24-γGlu-Palmitoyl])DCWP[dK](DOTA)-NH2; disulfide 4-10)",10 to 100 nM
11,"CCC(CC)[C@H](NC(=O)[C@@H](NC(=O)[C@H](Cc1c[nH]c2ccc(F)cc12)NC(C)=O)[C@@H](C)O)C(=O)N[C@H]1CSSC[C@@H](C(=O)N[C@@H](Cc2c[nH]c3ncccc23)C(=O)N2CC[C@H]2C(=O)N[C@H](CCCCNC(=O)CN2CCN(CC(=O)O)CCN(CC(=O)O)CCN(CC(=O)O)CC2)C(N)=O)NC(=O)[C@H](CC(=O)O)NC(=O)[C@H](Cc2c[nH]cn2)NC(=O)[C@H](Cc2ccc(C(F)(F)F)cc2)NC(=O)[C@H](CC(N)=O)NC(=O)[C@H](CC(N)=O)NC1=O [compound 138, Ac-(5Fluoro-W)-T-(Env)-C(3)-N-N-(4CF3-F)-H-D-C(3)-(7Aza-W)-(Aze)-[D-Lys(DOTA)]-NH2] (Ac-[Trp(5-F)]T[Nva(3-Et)]CNN[Phe(4-CF3)]HDC[Trp(7-aza)][Aze][dK](DOTA)-NH2; disulfide 4-10)",10 to 100 nM
